Test results taken from ChEMBL document CHEMBL3862010, “N-Arylsulfonyl-α-amino carboxamides are potent and selective inhibitors of the chemokine receptor CCR10 that show efficacy in the murine DNFB model of contact hypersensitivity” (Bioorg Med Chem Lett, 2016).

Legend:
[1] = target: T1, C-C chemokine receptor type 10 (Mus musculus, UniProt Q9JL21); test: Antagonist activity at mouse CCR10 expressed in CHOK1 cells coexpressing aequorin/Galphaq assessed as inhibition of CCL27-dependent calcium flux in presence of coelenterazine H by chemiluminescence assay; type: functional, cell-based, CHO-K1
T1 sequence (Q9JL21 whole entry): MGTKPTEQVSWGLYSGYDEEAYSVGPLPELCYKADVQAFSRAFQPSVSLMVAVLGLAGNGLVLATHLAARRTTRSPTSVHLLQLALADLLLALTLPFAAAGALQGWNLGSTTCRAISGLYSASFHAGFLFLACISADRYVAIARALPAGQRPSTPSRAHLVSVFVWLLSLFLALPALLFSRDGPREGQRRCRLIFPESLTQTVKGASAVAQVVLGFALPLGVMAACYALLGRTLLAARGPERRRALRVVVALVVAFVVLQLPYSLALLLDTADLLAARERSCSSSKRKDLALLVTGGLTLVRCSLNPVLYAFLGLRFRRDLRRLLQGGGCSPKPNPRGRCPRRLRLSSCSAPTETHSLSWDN

[2] = target: T2, C-C chemokine receptor type 10 (Homo sapiens, UniProt P46092); test: Antagonist activity at human CCR10 expressed in CHOK1 cells coexpressing aequorin/Galphaq assessed as inhibition of human CCL27-dependent calcium flux in presence of coelenterazine H by chemiluminescence assay; type: functional, cell-based, CHO-K1
T2 sequence (P46092 whole entry): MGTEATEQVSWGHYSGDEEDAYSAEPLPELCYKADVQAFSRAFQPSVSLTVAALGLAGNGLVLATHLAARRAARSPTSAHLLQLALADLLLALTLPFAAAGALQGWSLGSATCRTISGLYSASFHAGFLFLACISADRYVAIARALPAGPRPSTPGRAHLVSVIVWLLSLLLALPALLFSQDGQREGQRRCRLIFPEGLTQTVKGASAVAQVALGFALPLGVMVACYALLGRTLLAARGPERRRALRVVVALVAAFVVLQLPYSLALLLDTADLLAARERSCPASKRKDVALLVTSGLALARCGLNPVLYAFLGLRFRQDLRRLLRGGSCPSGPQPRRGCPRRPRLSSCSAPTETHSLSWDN

[3] = target: T2, C-C chemokine receptor type 10; test: Antagonist activity at human CCR10 expressed in CHOK1 cells coexpressing aequorin/Galphaq assessed as inhibition of CCL27-dependent calcium flux in presence of coelenterazine H by FLIPR assay; type: functional, cell-based, CHO-K1
[4] = target: T2, C-C chemokine receptor type 10; test: Antagonist activity at human CCR10 expressed in CHOK1 cells coexpressing aequorin/Galphaq assessed as inhibition of human CCL28-dependent calcium flux by chemiluminescence assay; type: functional, cell-based, CHO-K1
[5] = target: T2, C-C chemokine receptor type 10; test: Antagonist activity at human CCR10 expressed in CHOK1 cells coexpressing aequorin/Galphaq assessed as inhibition of human CCL28-dependent calcium flux by FLIPR assay; type: functional, cell-based, CHO-K1
[6] = Plasma concentration in Balb/C mouse at 100 mg/kg, ip bid measured after 1 hr; type: ADME, organism-based; settings: in vivo
[7] = Protein binding in Balb/C mouse plasma at 100 mg/kg, ip bid; type: ADME, organism-based; settings: in vivo
[8] = Plasma concentration in Balb/C mouse at 30 mg/kg, ip bid measured after 1 hr; type: ADME, organism-based; settings: in vivo, 1 h

IC50 [1] [nM]	IC50 ([2]; read-out: pIC50 (converted)) [nM]	Compound	other results
10000	631	CC1CCN(C(=O)[C@@H](CCc2ccccc2)NS(=O)(=O)c2cc(Cl)c(N)c(Cl)c2)CC1	–
3160	63.1	CC1CCN(C(=O)C(CCn2nccc2C#N)NS(=O)(=O)c2cc(Cl)c(N)c(Cl)c2)CC1 (stereo not given)	–
> 20000	501	CC1CCN(C(=O)C(CCn2ccnc2Cl)NS(=O)(=O)c2cc(Cl)c(N)c(Cl)c2)CC1 (stereo not given)	–
> 20000	–	CC1CCN(C(=O)C(CCn2ccnc2[N+](=O)[O-])NS(=O)(=O)c2cc(Cl)c(N)c(Cl)c2)CC1 (stereo not given)	IC50 [3]: 251 nM; IC50 ([2]; read-out: IC50): 690 nM; IC50 [4]: 794 nM; IC50 [5]: 794 nM
6310	126	CC1CCN(C(=O)C(CCn2cccc2C#N)NS(=O)(=O)c2cccc3c2ccn3C)CC1 (stereo not given)	–
15800	3160	CC1CCN(C(=O)C(CCn2cccc2C#N)NS(=O)(=O)c2cccc3[nH]ccc23)CC1 (stereo in doubt; form 2)	concentration [6]: 18 µM; PPB [7]: 99%; concentration [8]: 3.2 µM
7940	251	CC1CCN(C(=O)C(CCn2cccc2C#N)NS(=O)(=O)c2cccc3cc[nH]c23)CC1 (stereo not given)	–
